Source: patent US10463651B2, “3-(1H-pyrrolo[3,2-C]pyridin-2-YL)-1H-indazoles and therapeutic uses thereof” (Samumed, LLC, priority 2015, dated 2019)

Tests used:
Type in all cases: cell-based
[1] = system: Wnt activity (Sp5-Luc reporter, SW480 colon carcinoma cells); assay: Screening assay for Wnt activity (Sp5-Luc reporter gene assay in SW480 cells); conditions: Homo sapiens; Sp5-Luc reporter, SW480 cells, incubated overnight
Description: The screening assay for Wnt activity is described as follows. Reporter cell lines can be generated by stably transducing cancer cell lines (e.g., colon cancer) or primary cells (e.g., IEC-6 intestinal cells) with a lentiviral construct that includes a Wnt-responsive promoter driving expression of the firefly luciferase gene.
SW480 colon carcinoma cells were transduced with a lentiviral vector expressing luciferase with a human Sp5 promoter consisting of a sequence of eight TCF/LEF binding sites. SW480 cells stably expressing the Sp5-Luc reporter gene and a hygromycin resistance gene were selected by treatment with 150 μg/mL of hygromycin for 7 days. These stably transduced SW480 cells were expanded in cell culture and used for all further screening activities. […] For Sp5-Luc reporter gene assays, the cells were plated at 4,000 cells/well in 384-well plates with medium containing 1% fetal bovine serum and incubated overnight at 37° C. and 5% CO2. Following incubation, 20 μl of BrightGlo luminescence reagent (Promega) was added to each well of the 384-well assay plates. The plates were placed on an orbital shaker for 2 min and then luminescence was quantified using the Envision (Perkin Elmer) plate reader. Readings were normalized to DMSO only treated cells, and normalized activities were utilized for EC50 calculations using the dose-response log (inhibitor) vs. response-variable slope (four parameters) nonlinear regression feature available in GraphPad Prism 5.0 (or Dotmatics).

[2] = system: SW480 colon cancer cells; assay: Cell viability assay (CellTiter-Blue); conditions: Homo sapiens, 96 h; SW480 cell viability, four days, CellTiter-Blue
Experimental: Representative compounds were screened using the following assay procedure to assess the effect on cell viability as described below.
Approximately 2×10^3 SW480 colon cancer cells were seeded into each well and allowed to incubate in the presence or absence of compound for four days at 37° C./5% CO2. Eight replicates of DMSO-treated cells served as controls and cells treated with compound were performed in duplicate.
After incubation, 20 μL of CellTiter-Blue (Promega) was added to each well allowed to incubate for approximately 3 hours. This reagent was a buffered solution which contains resazurin, metabolically active cells were able to reduce rezarurin (blue) into resorufin (pink) which was highly fluorescent. This measured fluorescence was used as a readout for cell viability.

[3] = system: primary human fibroblasts derived from IPF patients (LL29 cells) treated with TGF-β1; assay: Inhibition of the fibrotic process (αSMA staining) in TGF-β1-treated fibroblasts; conditions: Fibroblast, 96 h; for EC50: % αSMA-positive LL29 cells, TGF-β1 20 ng/mL, 4 days
Experimental: Representative compounds were screened using primary human fibroblasts (derived from IPF patients) treated with TGF-β1 to determine their ability to inhibit the fibrotic process.
LL29 cells are plated at 1,500 cells/well in 80 μL/well F12 medium supplemented with 1% Fetal Bovine Serum. […] Wells treated with TGF-P1 and containing DMSO were used as controls. […] Following incubation for 4 days, SYTOX green nucleic acid stain (Life Technologies [Thermo Fisher Scientific]) was added to the wells at a final concentration of 1 μM and incubated at room temperature for 30 min.

[4] = system: IL-6 (THP-1 cells); assay: IL-6 inhibition in LPS-stimulated THP-1 cells (HTRF); conditions: Homo sapiens; for EC50: IL6 by HTRF, THP-1 cells, 500 ng/mL LPS, 22 hours; for inhibition at 10 µM: THP-1, read-out: percent inhibition at 10 M
Experimental: THP-1 cells were cultured in basal media with 1% FBS for 24 hours before the start of the assay. […] THP-1 cells were plated at 5000 cells/well in the 384-well plates and incubated at 37° C. for 2 h. 500 ng/mL of LPS was added after 2 hours and cells were incubated for another 22 hours at 37° C. Plates were spun in a centrifuge for 1 minute at […] and a mixture of anti-IL6 XL665, and anti-IL6 Cryptate diluted in reconstitution buffer (Cisbio Inc.) was added to each well. Following incubation for 3 hrs at room temperature, Homogeneous Time-Resolved Fluorescence (HTRF) was measured using the Envision (Perkin Elmer) at 665 nm and […]. The ratio of fluorescence at 665 nm to 620 nm was used as a readout for IL6 quantification. All samples were processed in duplicate. Readings were normalized to DMSO treated cells and normalized activities were utilized for EC50 calculations using the dose-response log (inhibitor) vs. response-variable slope (four parameters) nonlinear regression feature available in GraphPad Prism 5.0 (or Dotmatics).

Row | Structure (SMILES) | EC50 [1] [nM] | EC50 [2] [nM] | EC50 [3] [nM] | EC50 [4] [nM] | inhibition at 10 µM [4] [%] | inhibition at 10 µM ([3]; read-out: percent inhibition at 10 μM) [%]
1 | CCCC(=O)Nc1cncc(-c2ccc3[nH]nc(-c4cc5cnccc5[nH]4)c3c2)c1 [Compound 269, N-(5-(3-(1H-Pyrrolo[3,2-c]pyridin-2-yl)-1H-indazol-5-yl)pyridin-3-yl) butyramide] | 105 | 455 | 149 | 154 | – | –
2 | c1cncc(-c2ccc3[nH]nc(-c4cc5c(-c6ccsc6)nccc5[nH]4)c3c2)c1 [Compound 284, 5-(Pyridin-3-yl)-3-(4-(thiophen-3-yl)-1H-pyrrolo[3,2-c]pyridin-2-yl)-1H-indazole] | 1250 | 661 | 648 | 1100 | – | –
3 | c1ccc(-c2ccc3[nH]nc(-c4cc5c(-c6cccs6)nccc5[nH]4)c3c2)nc1 [Compound 364, 5-(Pyridin-2-yl)-3-(4-(thiophen-2-yl)-1H-pyrrolo[3,2-c]pyridin-2-yl)-1H-indazole] | 2220 | 1900 | 1770 | > 10000 | 44 | –
4 | CC(C)CC(=O)Nc1cncc(-c2ccc3[nH]nc(-c4cc5c(-c6cc(F)cc(CNS(C)(=O)=O)c6)nccc5[nH]4)c3c2)c1 [Compound 478, N-(5-(3-(4-(3-Fluoro-5-(methylsulfonamidomethyl)phenyl)-1H-pyrrolo[3,2-c]pyridin-2-yl)-1H-indazol-5-yl)pyridin-3-yl)-3-methylbutanamide] | 581 | 1070 | 2370 | 115 | – | –
5 | CS(=O)(=O)NCc1cc(F)cc(-c2nccc3[nH]c(-c4n[nH]c5ccc(-c6cncc(NC(=O)C7CC7)c6)cc45)cc23)c1 [Compound 496, N-(5-(3-(4-(3-Fluoro-5-(methylsulfonamidomethyl)phenyl)-1H-pyrrolo[3,2-c]pyridin-2-yl)-1H-indazol-5-yl)pyridin-3-yl)cyclopropanecarboxamide] | 370 | 930 | 5120 | 137 | – | –
6 | CS(=O)(=O)NCc1cc(F)cc(-c2nccc3[nH]c(-c4n[nH]c5ccc(-c6cncc(NC(=O)C7CCC7)c6)cc45)cc23)c1 [Compound 497, N-(5-(3-(4-(3-Fluoro-5-(methylsulfonamidomethyl)phenyl)-1H-pyrrolo[3,2-c]pyridin-2-yl)-1H-indazol-5-yl)pyridin-3-yl)cyclobutanecarboxamide] | 188 | 492 | 599 | 27 | – | –
7 | CS(=O)(=O)NCc1cc(F)cc(-c2nccc3[nH]c(-c4n[nH]c5ccc(-c6cncc(NC(=O)C7CCCC7)c6)cc45)cc23)c1 [Compound 498, N-(5-(3-(4-(3-Fluoro-5-(methylsulfonamidomethyl)phenyl)-1H-pyrrolo[3,2-c]pyridin-2-yl)-1H-indazol-5-yl)pyridin-3-yl)cyclopentanecarboxamide] | 741 | 1140 | 3500 | 103 | – | –
8 | CS(=O)(=O)NCc1cc(F)cc(-c2nccc3[nH]c(-c4n[nH]c5ccc(-c6ccccn6)cc45)cc23)c1 [Compound 504, N-(3-Fluoro-5-(2-(5-(pyridin-2-yl)-1H-indazol-3-yl)-1H-pyrrolo[3,2-c]pyridin-4-yl)benzyl)methanesulfonamide] | 3610 | 5540 | 2130 | > 10000 | 40.6 | –
9 | Fc1cccc(-c2nccc3[nH]c(-c4n[nH]c5ccc(C6CCNCC6)cc45)cc23)c1 [Compound 505, 3-(4-(3-Fluorophenyl)-1H-pyrrolo[3,2-c]pyridin-2-yl)-5-(piperidin-4-yl)-1H-indazole] | 3590 | 3840 | 3320 | 723 | – | –
10 | Fc1ccc(-c2nccc3[nH]c(-c4n[nH]c5ccc(C6=CCNCC6)cc45)cc23)cc1 [Compound 522, 3-(4-(4-Fluorophenyl)-1H-pyrrolo[3,2-c]pyridin-2-yl)-5-(1,2,3,6-tetrahydropyridin-4-yl)-1H-indazole] | 3780 | 2170 | 1430 | > 10000 | 4.1 | –
11 | Fc1ccc(-c2nccc3[nH]c(-c4n[nH]c5ccc(-c6cn[nH]c6)cc45)cc23)cc1 [Compound 523, 3-(4-(4-Fluorophenyl)-1H-pyrrolo[3,2-c]pyridin-2-yl)-5-(1H-pyrazol-4-yl)-1H-indazole] | 111 | 837 | 161 | 92 | – | –
12 | CN(C)CCOc1cncc(-c2ccc3[nH]nc(-c4cc5c(-c6ccc(F)cc6)nccc5[nH]4)c3c2)c1 [Compound 531, 2-((5-(3-(4-(4-fluorophenyl)-1H-pyrrolo[3,2-c]pyridin-2-yl)-1H-indazol-5-yl)pyridin-3-yl)oxy)-N,N-dimethylethan-1-amine] | 3380 | 1180 | 908 | 7050 | – | –
13 | Fc1ccccc1-c1nccc2[nH]c(-c3n[nH]c4ccc(-c5cncc(OC6CCNCC6)c5)cc34)cc12 [Compound 544, 3-(4-(2-Fluorophenyl)-1H-pyrrolo[3,2-c]pyridin-2-yl)-5-(5-(piperidin-4-yloxy)pyridin-3-yl)-1H-indazole] | 2340 | 2620 | > 10000 | 2490 | – | 0
14 | Cn1cc(-c2ccc3[nH]nc(-c4cc5c(-c6cccnc6)nccc5[nH]4)c3c2)cn1 [Compound 556, 5-(1-Methyl-1H-pyrazol-4-yl)-3-(4-(pyridin-3-yl)-1H-pyrrolo[3,2-c]pyridin-2-yl)-1H-indazole] | 59 | 448 | 29 | 90 | – | –
15 | NC1CN(c2cncc(-c3ccc4[nH]nc(-c5cc6c(N7CCCCC7)nccc6[nH]5)c4c3)n2)C1 [Compound 606, 1-(6-(3-(4-(Piperidin-1-yl)-1H-pyrrolo[3,2-c]pyridin-2-yl)-1H-indazol-5-yl)pyrazin-2-yl)azetidin-3-amine] | 1760 | 2780 | 236 | 66 | – | –
16 | c1cc2[nH]c(-c3n[nH]c4ccc(-c5cncc(OC6CCCCC6)c5)cc34)cc2c(N2CCCCC2)n1 [Compound 607, 5-(5-(Cyclohexyloxy)pyridin-3-yl)-3-(4-(piperidin-1-yl)-1H-pyrrolo[3,2-c]pyridin-2-yl)-1H-indazole] | 1140 | 1500 | 487 | 1050 | – | –
17 | COc1cncc(-c2ccc3[nH]nc(-c4cc5c(-c6ccc(C)s6)nccc5[nH]4)c3c2)c1 [Compound 740, 5-(5-Methoxypyridin-3-yl)-3-(4-(5-methylthiophen-2-yl)-1H-pyrrolo[3,2-c]pyridin-2-yl)-1H-indazole] | 1150 | 1510 | 445 | 5410 | – | –
18 | CS(=O)(=O)NCc1cc(F)cc(-c2nccc3[nH]c(-c4n[nH]c5ccc(-c6cncc(OCc7ccccc7)c6)cc45)cc23)c1 [Compound 774, N-(3-(2-(5-(5-(Benzyloxy)pyridin-3-yl)-1H-indazol-3-yl)-1H-pyrrolo[3,2-c]pyridin-4-yl)-5-fluorobenzyl)methanesulfonamide] | 1010 | 941 | 2300 | > 10000 | 42.4 | –
